Values after ≈ are worked out from the molar mass of the structure shown.
Assays:
[1] = system: Staphylococcus aureus 10092 (Newbould strain); assay: MIC, in vitro activity vs. S.aureus 10092; type: cell-based; design: unit not given beside the values; settings: Incubated at 37° C. overnight
Procedure: (§1) Table 2 summarizes the minimal inhibitory concentrations (MIC's) at which illustrative formula I compounds and cephalothin inhibit certain microorganisms associated with mastitis, such as Staphylococcus aureus 10092 (Newbould strain).
(§2) ^a Incubated at 37° C. overnight

[2] = system: Staphylococcus aureus 10092 (Newbould); assay: Efficacy in induced Staphylococcus aureus mastitis model in lactating goats; type: in vivo; settings: 8 halves per compound, 2 consecutive milkings 12 hours apart, approximately 25 mg/5 mL dose in peanut oil, from 36 hours post-challenge
From the text: Sixteen lactating goats were selected based on the absence of Staphylococcus aureus in pre-challenge milk cultures. Maintenance ration was provided to the animals throughout the study. The goats were milked twice each day using a portable goat milker.
Milk samples were collected during the morning milking. One day prior to challenge, milk culture samples were collected from each half of the test animals to determine if there was a pre-existing infection. Additionally, a sample was collected from each half for Somatic Cell Count (SCC) determination. A milk culture sample and a sample for SCC were collected from each half 24 hours post-challenge and on Days +4 to +6, +8, +11, +13, and +15.
Udder scoring was performed during each milking wing table:
General health observations and body temperature were recorded once a day following milking during the challenge and treatment periods.
Milk samples were submitted for analysis for SCC using an electronic somatic cell counting system.
Milk culture samples were assayed for bacterial culture by plating 1.0 mL and 0.1 mL of the milk sample directly onto duplicate blood agar plates. Additionally, dilutions 10^-1 of the milk sample were plated. Plates were incubated overnight at 37° C.
Staphylococcus aureus 10092 (Newbould) was used as the challenge strain. The challenge culture was grown in Tryptic Soy Broth (TSB) from a lyovial stock overnight (16 hours) at 37° C. TSB (100 mL) was inoculated with 1 mL of the overnight culture and incubated at 37° C. with shaking for 4 hours. The culture was centrifuged at 9000 rpm for 10 minutes at 10° C.; supernatant was removed and the pellet was resuspended in phosphate buffered saline (PBS). Optimum O.D. reading at 650 nm was approximately 0.035. A 10-fold dilution series was prepared with saline to determine the CFU/mL, plating 10^-5, 10^-6, and 10^-7 dilutions onto duplicate blood agar plates. The 10^-7 dilution (approximately 10 CFU/mL) was used for the challenge material, yielding a challenge of 50 CFU/half with a 5-mL infusion.
Sixteen goats were used for the trial. During a one day pre-challenge period, milk samples were collected and temperatures were taken during the morning milking. Milk/udder evaluations were documented during the morning and afternoon milkings.
Staphylococcus aureus 10092 was infused into both halves in each of the goats. The goats were challenged following the morning milking and milked in the afternoon on the day of challenge. The challenge inoculum volume was 5 mL/half containing approximately 50 CFU S. aureus.
For the 24 hr post-challenge period milk samples were collected during the morning milking, and milk/udder evaluations made during the morning and afternoon milking.
Treatment was started at 36 hours post-challenge. Milk samples were collected for culture and SCC 24 hours post-challenge, prior to the morning milking, and the treatment period started following the afternoon milking.
Eight halves (4 goats) each were treated for 2 consecutive milkings 12 hours apart, following milking. Each designated compound was formulated in peanut oil with […] of compound per 5 g of formulation to give approximately 25 mg/5 mL dose.
Following treatment, the goats were milked and observed for 15 days. Milk samples were collected on Days +4 to +6, +8, +11, +13, and +15 to determine if the infection had cleared.
Establishment of mastitis was determined by bacterial culturing, severity of udder scoring, somatic cell count results, and body temperature.
On Days +2 to +6, milk samples were collected for a calorimetric assay to determine whether the antibiotic was still present in the milk.

[3] = system: Streptococcus uberis 150 L; assay: MIC, in vitro activity vs. Streptococcus uberis 150 L; type: cell-based; design: unit not given beside the values; settings: Incubated at 37° C. overnight
Procedure: as §1, §2

S.aureus ATCC 29213 = assay: MIC, in vitro activity vs. S.aureus ATCC 29213; type: cell-based, Staphylococcus aureus; design: unit not given beside the values; settings: Incubated at 37° C. overnight
Procedure: as §1, §2

[4] = system: Strepcococcus dysgalactiae; assay: MIC, in vitro activity vs. Streptococcus dysgalactiae; type: cell-based; design: unit not given here; settings: Incubated at 37° C. overnight
Procedure: as §1, §2

Streptococcus agalactiae = assay: MIC, in vitro activity vs. Streptococcus agalactiae; type: cell-based; design: unit not given here; settings: Incubated at 37° C. overnight
Procedure: as §1, §2

S.aureus 174 C = assay: MIC, in vitro activity vs. S.aureus 174 C; type: cell-based, Staphylococcus aureus; design: unit not given beside the values; settings: Incubated at 37° C. overnight
Procedure: as §1, §2

S.aureus F1C = assay: MIC, in vitro activity vs. S.aureus F1C; type: cell-based, Staphylococcus aureus; design: unit not given beside the values; settings: Incubated at 37° C. overnight
Procedure: as §1, §2

[5] = system: Streptococcus uberis 166 L; assay: MIC, in vitro activity vs. Streptococcus uberis 166 L; type: cell-based; design: unit not given beside the values; settings: Incubated at 37° C. overnight
Procedure: as §1, §2

[6] = system: pasteurella multocida ATCC 12945; assay: MIC against Gram-negative organisms: pasteurella multocida ATCC 12945; type: cell-based; settings: Incubated at 37° C. overnight; unit assumed
Procedure: (§3) The formula I compounds are also active against certain Gram-negative species.
as §2

[7] = system: pasteurella multocida 1051 (swine); assay: MIC against Gram-negative organisms: pasteurella multocida 1051 (swine); type: cell-based; settings: Incubated at 37° C. overnight; unit assumed
Procedure: as §3, §2

[8] = system: Pasteurella haemolytica 128K (bovine); assay: MIC against Gram-negative organisms: Pasteurella haemolytica 128K (bovine); type: cell-based; settings: Incubated at 37° C. overnight; unit assumed
Procedure: as §3, §2

Salmonella typhimurium = assay: MIC against Gram-negative organisms: Salmonella typhimurium; type: cell-based; settings: Incubated at 37° C. overnight; unit assumed
Procedure: as §3, §2

[9] = system: pasteurella multocida 10,102 (bovine); assay: MIC against Gram-negative organisms: pasteurella multocida 10,102 (bovine); type: cell-based; settings: Incubated at 37° C. overnight; unit assumed
Procedure: as §3, §2

[10] = system: Pasteurella haemolytica 129R (bovine); assay: MIC against Gram-negative organisms: Pasteurella haemolytica 129R (bovine); type: cell-based; settings: Incubated at 37° C. overnight; unit assumed
Procedure: as §3, §2

[11] = system: pasteurella multocida 108E (bovine); assay: MIC against Gram-negative organisms: pasteurella multocida 108E (bovine); type: cell-based; settings: Incubated at 37° C. overnight; unit assumed
Procedure: as §3, §2

Escherichia coli = assay: MIC against Gram-negative organisms: Escherichia coli; type: cell-based; settings: Incubated at 37° C. overnight; unit assumed
Procedure: as §3, §2

[12] = system: Pasteurella haemolytica 114F (bovine); assay: MIC against Gram-negative organisms: Pasteurella haemolytica 114F (bovine); type: cell-based; settings: Incubated at 37° C. overnight; unit assumed
Procedure: as §3, §2

Mastitis in Cows = assay: Efficacy in mastitis in lactating cows; type: in vivo; settings: three trials, 450 mmoles/quarter/dose for two doses
Procedure: Compound 1 was administered to lactating cows in three trials using methods analogous to those used in the goat model described in Example 13. A total of 43 quarters were treated with Compound 1, and 36 quarters were treated with cephapirin (Cefa-Lak). Both compounds were administered at 450 mmoles/quarter/dose for two doses. Compound 1 effectively treated 27 out of 43 quarters for an overall cure rate of 63%, whereas cephapirin effectively treated 18 out of 36 quarters for an overall cure rate of only 50%.

Q: What does the source list for Cc1nnc(SCC2=C(C(=O)O)N3C(=O)[C@@H](NC(=O)Cc4c(F)c(F)c(F)c(F)c4F)[C@H]3SC2)s1 [Compound 6]?
A: MIC vs. S.aureus 10092 [1]: 0.125; % Bacteriologic Cures [2]: 60%; MIC vs. Streptococcus uberis 150 L [3]: 0.0625; MIC vs. S.aureus ATCC 29213 (S.aureus ATCC 29213): 0.125; MIC vs. Strepcococcus dysgalactiae [4]: 0.0312; MIC vs. Streptococcus agalactiae (Streptococcus agalactiae): 0.0625; MIC vs. S.aureus 174 C (S.aureus 174 C): 0.125; MIC vs. S.aureus F1C (S.aureus F1C): 0.25; MIC vs. Streptococcus uberis 166 L [5]: 0.0156

Q: With Cc1nnc(SCC2=C(C(=O)O)N3C(=O)[C@@H](NC(=O)CSc4ccc(S(=O)(=O)C(F)(F)F)cc4)[C@H]3SC2)s1 [Compound 4] as the compound, how does the “MIC vs. S.aureus 10092” value [1] read?
A: Its value is 0.0312.

Q: And the “% Bacteriologic Cures” value [2]?
A: The value was 71%.

Q: What about the “MIC vs. S.aureus ATCC 29213” value (S.aureus ATCC 29213) of the same compound?
A: Its value is 0.0625.

Q: And the “MIC vs. Streptococcus agalactiae” value (Streptococcus agalactiae)?
A: The value was 0.0156.

Q: What about the “MIC vs. S.aureus 174 C” value (S.aureus 174 C) of the same compound?
A: The value was 0.0312.

Q: And the “MIC vs. S.aureus F1C” value (S.aureus F1C)?
A: The value was 0.125.

Q: For CC(=O)OCC1=C(C(=O)O)N2C(=O)[C@@H](NC(=O)Cc3cccs3)[C@H]2SC1 [Cephalothin, reference compound], which “MIC vs. Streptococcus uberis 150 L” value [3] is on record?
A: The value was 0.125.

Q: What about the MIC, pasteurella multocida ATCC 12945 [6] of the same compound?
A: Its MIC, pasteurella multocida ATCC 12945 is 0.25 µg/mL (≈ 0.631 µM).

Q: And the “MIC vs. S.aureus ATCC 29213” value (S.aureus ATCC 29213)?
A: The value was 0.25.

Q: And the MIC, pasteurella multocida 1051 (swine) [7]?
A: Its MIC, pasteurella multocida 1051 (swine) is 0.25 µg/mL (≈ 0.631 µM).

Q: What about the “MIC vs. Streptococcus agalactiae” value (Streptococcus agalactiae) of the same compound?
A: The value was 0.125.

Q: What about the MIC, Pasteurella haemolytica 128K (bovine) [8] of the same compound?
A: The MIC, Pasteurella haemolytica 128K (bovine) was 0.5 µg/mL (≈ 1.26 µM).

Q: And the MIC, Salmonella typhimurium (Salmonella typhimurium)?
A: The MIC, Salmonella typhimurium was 4 µg/mL (≈ 10.1 µM).

Q: What about the MIC, pasteurella multocida 10,102 (bovine) [9] of the same compound?
A: Its MIC, pasteurella multocida 10,102 (bovine) is 0.5 µg/mL (≈ 1.26 µM).

Q: And the “MIC vs. S.aureus 174 C” value (S.aureus 174 C)?
A: Its value is 0.25.

Q: And the “MIC vs. S.aureus F1C” value (S.aureus F1C)?
A: The value was 0.25.

Q: And the MIC, Pasteurella haemolytica 129R (bovine) [10]?
A: Its MIC, Pasteurella haemolytica 129R (bovine) is 1 µg/mL (≈ 2.52 µM).

Q: And the “MIC vs. Streptococcus uberis 166 L” value [5]?
A: Its value is 0.0625.

Q: And the MIC, pasteurella multocida 108E (bovine) [11]?
A: The MIC, pasteurella multocida 108E (bovine) was 0.5 µg/mL (≈ 1.26 µM).

Q: What about the MIC, Escherichia coli (Escherichia coli) of the same compound?
A: Its MIC, Escherichia coli is 8 µg/mL (≈ 20.2 µM).

Q: And the MIC, Pasteurella haemolytica 114F (bovine) [12]?
A: The MIC, Pasteurella haemolytica 114F (bovine) was 1 µg/mL (≈ 2.52 µM).

Q: What does the source list for Cc1nnc(SCC2=C(C(=O)O)N3C(=O)[C@@H](NC(=O)COc4c(F)cc(F)cc4F)[C@H]3SC2)s1 [Compound 9]?
A: MIC vs. S.aureus 10092 [1]: 0.125; % Bacteriologic Cures [2]: 83%; MIC vs. Streptococcus uberis 150 L [3]: 0.0625; MIC vs. S.aureus ATCC 29213 (S.aureus ATCC 29213): 0.125; MIC vs. Strepcococcus dysgalactiae [4]: 0.125; MIC vs. Streptococcus agalactiae (Streptococcus agalactiae): 0.0312; MIC vs. S.aureus 174 C (S.aureus 174 C): 0.0625; MIC vs. S.aureus F1C (S.aureus F1C): 0.125; MIC vs. Streptococcus uberis 166 L [5]: 0.0625

Q: With CC(=O)OCC1=C(C(=O)O)N2C(=O)[C@@H](NC(=O)CSc3ccncc3)[C@H]2SC1 [cephapirin, reference compound] as the compound, how does the overall cure rate (Mastitis in Cows) read?
A: Its overall cure rate is 50%.

Q: What about the quarters effectively treated (Mastitis in Cows) of the same compound?
A: Its quarters effectively treated is 18 out of 36.

Q: Which “MIC vs. S.aureus 10092” value [1] does the source give for Cc1nnc(SCC2=C(C(=O)O)N3C(=O)[C@@H](NC(=O)CSc4ccc(C(F)(F)F)cc4)[C@H]3SC2)s1 [Compound 2] here?
A: Its value is 0.125.

Q: And the “% Bacteriologic Cures” value [2]?
A: Its value is 83%.

Q: And the “MIC vs. Streptococcus uberis 150 L” value [3]?
A: The value was 0.125.

Q: And the “MIC vs. S.aureus ATCC 29213” value (S.aureus ATCC 29213)?
A: The value was 0.25.

Q: And the “MIC vs. Strepcococcus dysgalactiae” value [4]?
A: Its value is 0.0625.

Q: And the “MIC vs. Streptococcus agalactiae” value (Streptococcus agalactiae)?
A: Its value is 0.125.

Q: And the “MIC vs. S.aureus 174 C” value (S.aureus 174 C)?
A: Its value is 0.125.

Q: And the “MIC vs. S.aureus F1C” value (S.aureus F1C)?
A: The value was 0.25.

Q: And the “MIC vs. Streptococcus uberis 166 L” value [5]?
A: Its value is 0.125.

From US6329363A, “Cephalosporin antibiotics” (Eli Lilly and Company, priority 1998, dated 2001)
